The values below come from patent US20250236616A1, “IMMUNOMODULATING AZALIDES” (Zoetis Services LLC, priority 2021, published 2025).

The test system of one experiment is IL-1β. In words: Whole bovine blood assay, LPS-induced IL-1β (inhibition / overstimulation). The class given is cell-based. As to conditions: Bos taurus, 18 h, drug concentration giving overstimulation (OS) of LPS-induced IL-1β, top concentration 250 μM. In short, it runs like this: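 IL-1β was quantified by MSD U-Plex chemiluminescence in plasma and normalized to BCA total protein. Bovine blood was pretreated 4 h at 37 °C with compound dilutions before 18 h LPS challenge (1 μg/mL final). Rising IL-1β at high concentrations was recorded as overstimulation.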

A further experiment has as its system IL-6. Briefly: Whole bovine blood assay, LPS-induced IL-6. It counts as cell-based. As to conditions: Bos taurus, fresh whole bovine blood, LPS stimulant; top drug concentration 250 μM.
Experiment [1] deals with BRD pathogens, M. haemolytica and P. multocida. In words: MIC screening panel, BRD pathogens (CLSI broth micro-dilution). It counts as cell-based. Particulars: BRD pathogenic strains / target pathogens; read-out: MIC. In a few lines:
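MICs were determined by CLSI broth micro-dilution in cation-adjusted Mueller Hinton Broth at about 5×10^5 CFU/mL, with QC strains included. Incubation was 18-22 h at 35-37° C. in air, 5% CO2 or anaerobically (up to 48 h) depending on strain. BRD pathogens were first tested at a top concentration of 64 μg/mL in an eleven-point dilution series.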

Experiment [2] concerns natural bovine respiratory disease (BRD). In words: Natural bovine respiratory disease study, treatment failure. The class given is in vivo, beef calves. Particulars: dosed on arrival to the feedlot, 14-day observation.
Protocol: The primary clinical endpoint for efficacy was treatment failure/success over a 14-day observation period. Clinically normal beef calves (150-200 kg) at moderate risk for BRD were dosed on arrival to the feedlot. Animals (N=114/group) received saline (T01), 5 mg/kg M9 (T02) or 10 mg/kg M9 (T03); or Zactran (T04).

The minimal effective concentration is the smallest amount tested that counted as effective. A word on the IC50: it is the concentration that gives 50% inhibition. A higher IC50 goes with a need for much substance. As usually defined, the MIC is the lowest concentration found to suppress growth.

The compound `CC[C@H]1OC(=O)[C@H](C)[C@@H](O)[C@H](C)[C@@H](O[C@@H]2O[C@H](C)C[C@H](N(C)S(=O)(=O)c3ccccc3)[C@H]2Oc2ccc(OC)cc2)[C@](C)(O)C[C@@H](C)CN[C@H](C)[C@@H](O)[C@]1(C)O` [Example A-9, N-((2S,3R,4S,6R)-2-(((2R,3S,4R,5R,8R,10R,11R,12S,13S,14R)-2-ethyl-3,4,10,13-tetrahydroxy-3,5,8,10, 12, 14-hexamethyl-15-oxo-1-oxa-6-azacyclopentadecan-11-yl)oxy)-3-(4-methoxyphenoxy)-6-methyltetrahydro-2H-pyran-4-yl)-N-methylbenzenesulfonamide] returned a minimal effective concentration in the experiment with IL-1β of 16 µM. Also, it took 21 µM to reach half-maximal inhibition in the experiment with IL-6 (IC50).

`CCCNC[C@]1(O)[C@H](C)O[C@@H](O[C@H]2[C@H](C)[C@@H](O[C@@H]3O[C@H](C)C[C@H](N(C)S(=O)(=O)c4ccc(C)cc4)[C@H]3O)[C@](C)(O)C[C@@H](C)CN[C@H](C)[C@@H](O)[C@](C)(O)[C@@H](CC)OC(=O)[C@@H]2C)C[C@@]1(C)OC` [Example B-26, N-((2S,3R,4S,6R)-2-(((2R,3S,4R,5R,8R,10R,11R,12S,13S,14R)-2-ethyl-3,4,10-trihydroxy-13-(((2R,4R,5S,6S)-5-hydroxy-4-methoxy-4,6-dimethyl-5-((propylamino)methyl)tetrahydro-2H-pyran-2-yl)oxy)-3,5,8,10,12,14-hexamethyl-15-oxo-1-oxa-6-azacyclopentadecan-11-yl)oxy)-3-hydroxy-6-methyltetrahydro-2H-pyran-4-yl)-N,4-dimethylbenzenesulfonamide] returned a minimal effective concentration with IL-1β of 16 µM. This counts as double-digit micromolar.

Compound `CCCNC[C@]1(O)[C@H](C)O[C@@H](O[C@H]2[C@H](C)[C@@H](O[C@@H]3O[C@H](C)C[C@H](N(C)S(=O)(=O)Nc4ccc(C(F)(F)F)cc4)[C@H]3O)[C@](C)(O)C[C@@H](C)CN[C@H](C)[C@@H](O)[C@](C)(O)[C@@H](CC)OC(=O)[C@@H]2C)C[C@@]1(C)OC` [Example B-50, (2R,3S,4R,5R,8R,10R,11R,12S,13S, 14R)-2-ethyl-3,4,10-trihydroxy-13-[(2R,4R,5S,6S)-5-hydroxy-4-methoxy-4,6-dimethyl-5-(propylaminomethyl)oxan-2-yl]oxy-11-[(2S,3R,4S,6R)-3-hydroxy-6-methyl-4-[methyl-[[4-(trifluoromethyl)phenyl]sulfamoyl]amino]oxan-2-yl]oxy-3,5,8, 10, 12, 14-hexamethyl-15-oxo-1-oxa-6-azacyclopentadecane] returned a minimal effective concentration with IL-1β of 6 µM. Besides, the IC50 with IL-6 is 49 µM.

In the experiment with IL-1β, `CC[C@H]1OC(=O)[C@H](C)[C@@H](O[C@H]2C[C@@](C)(OC)[C@](O)(CN3CCCCC3)[C@H](C)O2)[C@H](C)[C@@H](O[C@@H]2O[C@H](C)C[C@H](N(C)S(=O)(=O)c3ccc(Cl)cc3)[C@H]2O)[C@](C)(O)C[C@@H](C)CN[C@H](C)[C@@H](O)[C@]1(C)O` [Example C-4, 4-chloro-N-((2S,3R,4S,6R)-2-(((2R,3S,4R,5R,8R,10R,11R,12S,13S,14R)-2-ethyl-3,4,10-trihydroxy-13-(((2R,4R,5S,6S)-5-hydroxy-4-methoxy-4,6-dimethyl-5-(piperidin-1-ylmethyl)tetrahydro-2H-pyran-2-yl)oxy)-3,5,8, 10, 12, 14-hexamethyl-15-oxo-1-oxa-6-azacyclopentadecan-11-yl)oxy)-3-hydroxy-6-methyltetrahydro-2H-pyran-4-yl)-N-methylbenzenesulfonamide] showed a minimal effective concentration of 16 µM.

Regarding `CC[C@H]1OC(=O)[C@H](C)[C@@H](O[C@H]2C[C@@](C)(OC)[C@](O)(CN3CCCCC3)[C@H](C)O2)[C@H](C)[C@@H](O[C@@H]2O[C@H](C)C[C@H](N(C)S(=O)(=O)Nc3ccc(C(F)(F)F)cc3)[C@H]2O)[C@](C)(O)C[C@@H](C)CN[C@H](C)[C@@H](O)[C@]1(C)O` [Example C-11, (2R,3S,4R,5R,8R,10R,11R,12S, 13S, 14R)-2-ethyl-3,4, 10-trihydroxy-13-[(2R,4R,5S,6S)-5-hydroxy-4-methoxy-4,6-dimethyl-5-(piperidin-1-ylmethyl)oxan-2-yl]oxy-11-[(2S,3R,4S,6R)-3-hydroxy-6-methyl-4-[methyl-[[4-(trifluoromethyl)phenyl]sulfamoyl]amino]oxan-2-yl]oxy-3,5,8, 10, 12, 14-hexamethyl-15-oxo-1-oxa-6-azacyclopentadecane], the IC50 with IL-6 worked out at 13 µM.

With `CCCNC[C@]1(O)[C@H](C)O[C@@H](O[C@H]2[C@H](C)[C@@H](O[C@@H]3O[C@H](C)C[C@H](NC)[C@H]3O)[C@](C)(O)C[C@@H](C)CN[C@H](C)[C@@H](O)[C@](C)(O)[C@@H](CC)OC(=O)[C@@H]2C)C[C@@]1(C)OC` [Example M9, (2R,3S,4R,5R,8R,10R,11R,12S,13S,14R)-2-ethyl-3,4, 10-trihydroxy-13-(((2R,4R,5S,6S)-5-hydroxy-4-methoxy-4,6-dimethyl-5-((propylamino)methyl)-tetrahydro-2H-pyran-2-yl)oxy)-11-(((2S,3R,4S,6R)-3-hydroxy-6-methyl-4-(methylamino)tetrahydro-2H-pyran-2-yl)oxy)-3,5,8,10,12,14-hexamethyl-1-oxa-6-azacyclopentadecan-15-one], the minimal inhibitory concentration (MIC) in experiment [1] is no more than 64 µg/mL. Further, the Percent failure in experiment [2] (5 mg/kg) stood at 19.3%; in experiment [2] (10 mg/kg) it was 8.8%.
